The values below come from ChEMBL document CHEMBL4229421 (Bioorg Med Chem Lett, 2018).

Each structure is given as a SMILES string.

In one assay the test system is HCT-116. The assay can be described thus: Antiproliferative activity against human HCT116 cells. It counts as functional, cell-based.
Another assay deals with Histone deacetylase 1 (Homo sapiens, UniProt Q13547). The experiment in a line: Inhibition of human HDAC1 using p53 (379 to 382 residues) derived fluorogenic peptide RHKKAc as substrate.
The target in assay [1] is T1, Protein deacetylase HDAC6 (Homo sapiens, UniProt Q9UBN7).
T1 sequence (Q9UBN7 whole entry): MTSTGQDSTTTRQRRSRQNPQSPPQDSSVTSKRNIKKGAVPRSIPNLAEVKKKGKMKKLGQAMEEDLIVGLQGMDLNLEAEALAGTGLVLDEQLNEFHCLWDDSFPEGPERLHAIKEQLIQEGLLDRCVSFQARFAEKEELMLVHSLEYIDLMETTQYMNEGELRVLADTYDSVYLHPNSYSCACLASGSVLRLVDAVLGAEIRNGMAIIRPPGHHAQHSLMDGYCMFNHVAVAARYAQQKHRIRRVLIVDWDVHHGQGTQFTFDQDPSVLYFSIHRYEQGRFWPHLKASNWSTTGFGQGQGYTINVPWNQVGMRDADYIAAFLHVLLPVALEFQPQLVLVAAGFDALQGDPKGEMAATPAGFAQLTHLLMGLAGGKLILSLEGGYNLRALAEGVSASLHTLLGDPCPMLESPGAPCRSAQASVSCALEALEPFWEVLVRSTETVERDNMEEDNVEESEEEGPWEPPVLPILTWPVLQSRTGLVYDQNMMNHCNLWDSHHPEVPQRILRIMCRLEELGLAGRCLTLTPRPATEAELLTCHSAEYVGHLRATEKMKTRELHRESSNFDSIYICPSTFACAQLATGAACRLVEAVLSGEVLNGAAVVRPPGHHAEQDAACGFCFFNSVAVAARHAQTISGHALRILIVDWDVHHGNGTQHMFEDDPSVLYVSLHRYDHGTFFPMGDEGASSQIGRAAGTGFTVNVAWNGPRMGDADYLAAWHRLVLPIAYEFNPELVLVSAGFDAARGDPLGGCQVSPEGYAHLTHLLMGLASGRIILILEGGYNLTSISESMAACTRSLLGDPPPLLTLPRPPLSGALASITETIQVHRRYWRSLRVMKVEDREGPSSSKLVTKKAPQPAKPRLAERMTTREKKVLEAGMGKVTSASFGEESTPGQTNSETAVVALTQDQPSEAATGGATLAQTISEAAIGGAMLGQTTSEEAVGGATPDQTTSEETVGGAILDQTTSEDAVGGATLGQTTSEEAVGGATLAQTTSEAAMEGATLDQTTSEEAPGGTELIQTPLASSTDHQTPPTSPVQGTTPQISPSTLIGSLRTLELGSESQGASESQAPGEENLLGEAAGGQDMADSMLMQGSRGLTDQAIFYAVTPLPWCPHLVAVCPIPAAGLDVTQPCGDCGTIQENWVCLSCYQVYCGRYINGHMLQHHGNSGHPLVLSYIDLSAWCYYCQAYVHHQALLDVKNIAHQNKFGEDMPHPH
The assay can be described thus: Inhibition of human HDAC6 using p53 (379 to 382 residues) derived fluorogenic peptide RHKKAc as substrate.

For assay [2], the target named is Tyrosine-protein kinase JAK2 (Homo sapiens, UniProt O60674). The assay can be described thus: Inhibition of human JAK2 using poly[Glu:Tyr] (4:1) as substrate in presence of [gamma-33P]ATP.
The test system of a further assay is MDA-MB-231. The assay can be described thus: Antiproliferative activity against human MDA-MB-231 cells. It counts as functional, cell-based.
The subject of a further assay is PC-3. The assay can be described thus: Antiproliferative activity against human PC3 cells. It counts as functional, cell-based.
For a further assay, the system named is MCF7. The experiment in a line: Antiproliferative activity against human MCF7 cells. It counts as functional, cell-based.
The species entered for the next assay is Homo sapiens. The experiment in a line: Selectivity ratio of IC50 for human HDAC6 to IC50 for human HDAC1.

Chain of Tyrosine-protein kinase JAK2 (O60674 whole entry): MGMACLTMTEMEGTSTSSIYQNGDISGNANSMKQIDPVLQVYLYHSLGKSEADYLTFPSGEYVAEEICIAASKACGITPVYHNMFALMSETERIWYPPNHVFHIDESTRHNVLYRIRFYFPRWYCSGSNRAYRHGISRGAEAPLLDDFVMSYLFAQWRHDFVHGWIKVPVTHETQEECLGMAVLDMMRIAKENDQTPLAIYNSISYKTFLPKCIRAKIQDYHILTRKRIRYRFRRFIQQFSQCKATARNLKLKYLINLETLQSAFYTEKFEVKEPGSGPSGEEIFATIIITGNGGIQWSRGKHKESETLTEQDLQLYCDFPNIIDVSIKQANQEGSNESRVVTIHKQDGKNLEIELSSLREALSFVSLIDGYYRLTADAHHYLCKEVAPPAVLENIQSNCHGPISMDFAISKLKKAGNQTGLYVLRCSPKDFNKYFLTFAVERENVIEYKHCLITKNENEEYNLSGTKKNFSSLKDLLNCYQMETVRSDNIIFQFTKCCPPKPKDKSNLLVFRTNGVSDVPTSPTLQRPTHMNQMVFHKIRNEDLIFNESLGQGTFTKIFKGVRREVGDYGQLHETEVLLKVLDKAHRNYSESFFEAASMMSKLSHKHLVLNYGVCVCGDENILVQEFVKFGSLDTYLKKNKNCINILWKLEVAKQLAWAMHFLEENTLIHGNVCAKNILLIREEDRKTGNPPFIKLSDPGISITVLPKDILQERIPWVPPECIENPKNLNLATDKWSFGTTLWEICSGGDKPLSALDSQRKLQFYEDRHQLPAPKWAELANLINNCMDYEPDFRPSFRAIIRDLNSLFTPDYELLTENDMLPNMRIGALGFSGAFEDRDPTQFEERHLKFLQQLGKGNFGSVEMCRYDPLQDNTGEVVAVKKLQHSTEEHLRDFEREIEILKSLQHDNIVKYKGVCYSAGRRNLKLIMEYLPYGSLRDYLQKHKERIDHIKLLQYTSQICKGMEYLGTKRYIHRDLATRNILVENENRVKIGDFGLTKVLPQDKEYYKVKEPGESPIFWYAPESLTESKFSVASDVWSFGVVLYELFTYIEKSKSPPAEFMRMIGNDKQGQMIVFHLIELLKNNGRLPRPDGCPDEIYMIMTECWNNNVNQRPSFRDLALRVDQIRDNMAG
Chain of Histone deacetylase 1 (Q13547 whole entry, the tested form may be a part): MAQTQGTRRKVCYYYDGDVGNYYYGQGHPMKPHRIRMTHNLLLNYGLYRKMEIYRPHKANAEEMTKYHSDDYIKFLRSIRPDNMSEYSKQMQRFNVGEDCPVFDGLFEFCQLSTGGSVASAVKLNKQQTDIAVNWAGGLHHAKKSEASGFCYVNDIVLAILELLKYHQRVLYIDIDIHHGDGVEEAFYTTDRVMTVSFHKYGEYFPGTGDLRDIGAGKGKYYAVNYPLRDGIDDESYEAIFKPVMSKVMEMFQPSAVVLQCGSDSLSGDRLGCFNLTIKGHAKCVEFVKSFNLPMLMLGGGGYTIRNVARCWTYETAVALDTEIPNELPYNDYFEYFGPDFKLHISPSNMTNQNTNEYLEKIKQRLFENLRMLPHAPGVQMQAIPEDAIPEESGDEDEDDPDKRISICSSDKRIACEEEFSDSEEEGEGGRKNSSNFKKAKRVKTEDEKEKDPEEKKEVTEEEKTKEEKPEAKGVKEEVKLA

Consider `N#CC[C@H](C1CCCC1)n1cc(-c2ncnc3[nH]ccc23)cn1` [RUXOLITINIB], for which, in the assay on HCT-116, the IC50 was above 10000 nM.

With `CS(=O)(=O)CCn1cc(-c2nc(Nc3ccc(NC(=O)CCCCCCC(=O)NO)cc3)nc3[nH]ccc23)cn1`, the IC50 is 101 nM on Histone deacetylase 1; 2.3 nM in assay [1]; 7.7 nM in assay [2]; above 100000 nM in the assay on MDA-MB-231; above 100000 nM with HCT-116; above 100000 nM in the assay with PC-3. The same molecule gave an IC50 in the assay with MCF7 above 100000 nM.

Regarding `COCCn1cc(-c2nc(Nc3ccc(NC(=O)CCCCCCC(=O)NO)cc3)nc3[nH]ccc23)cn1`, the IC50 against Histone deacetylase 1 turned out to be 63 nM; in assay [1], 2.1 nM; in assay [2], 2.3 nM; in the assay on MDA-MB-231, 13300 nM; in the assay on HCT-116, 9400 nM; in the assay on PC-3 it was 35000 nM. The same molecule showed an IC50 in the assay on MCF7 of 12200 nM.

Turning to `CCCn1cc(-c2nc(Nc3ccc(NC(=O)CCCCCCC(=O)NO)cc3)nc3[nH]ccc23)cn1`, the IC50 against Histone deacetylase 1 was determined as 44 nM; in assay [1], 1.6 nM; in assay [2], 0.15 nM; in the assay on MDA-MB-231, 9100 nM; with HCT-116, 6500 nM; in the assay on PC-3 it was 13400 nM. The molecule also came in with an IC50 with MCF7 of 8200 nM.

In the case of `O=C(CCCCCCC(=O)Nc1ccc(Nc2nc(-c3cnn(CCCCCOc4ccccc4)c3)c3cc[nH]c3n2)cc1)NO`, the IC50 against Histone deacetylase 1 was determined as 1320 nM; in assay [1], 5.2 nM; in assay [2], 21 nM.

In the case of `O=C(CCCCCCC(=O)Nc1ccc(Nc2nc(-c3cnn(CCCCCCOc4ccccc4)c3)c3cc[nH]c3n2)cc1)NO`, the IC50 against Histone deacetylase 1 stood at 2000 nM; in assay [1], 15.8 nM; in assay [2], 19 nM.

For the molecule `O=C(CCCCCCC(=O)Nc1ccc(Nc2nc(-c3cnn(CC4CCCC4)c3)c3cc[nH]c3n2)cc1)NO`, the IC50 turned out to be 2710 nM against Histone deacetylase 1, 9.6 nM in assay [1] and 3 nM in assay [2]. In addition, in the assay listed under Homo sapiens, the Ratio IC50 came out at 300.

For the molecule `O=C(CCCCCCOc1ccc2cc1COC/C=C/COCc1cccc(c1)-c1ccnc(n1)N2)NO`, the IC50 with MDA-MB-231, with HCT-116, in the assay on PC-3 and in the assay with MCF7 was above 10000 nM throughout.

Consider `C=CCCn1cc(-c2nc(Nc3ccc(NC(=O)CCCCCCC(=O)NO)cc3)nc3[nH]ccc23)cn1`, for which the IC50 on Histone deacetylase 1 came out at 83 nM; in assay [1], 0.25 nM; in assay [2] it was 0.041 nM; with MDA-MB-231, 7400 nM; with HCT-116 it was 4100 nM; in the assay on PC-3, 7700 nM. This molecule also came in with an IC50 with MCF7 of 4500 nM. For the same molecule, in the assay listed under Homo sapiens, the Ratio IC50 was above 300.

`N#CCCn1cc(-c2nc(Nc3ccc(NC(=O)CCCCCCC(=O)NO)cc3)nc3[nH]ccc23)cn1`: the results for the IC50 (against Histone deacetylase 1; in assay [1]) were 45 nM and 0.85 nM, respectively.

Turning to `O=C(CCCCCCC(=O)Nc1ccc(Nc2nc(-c3cn[nH]c3)c3cc[nH]c3n2)cc1)NO`, the IC50 against Histone deacetylase 1 was found to be 2 nM; in assay [1], 0.2 nM; in assay [2], 0.96 nM; with MDA-MB-231 it was 11800 nM; in the assay with HCT-116, 14400 nM; with PC-3, 20100 nM. In the assay with MCF7, this molecule gave an IC50 of 15600 nM.

As for `O=C(CCCCCCC(=O)Nc1ccc(Nc2nc(-c3cnn(CCCCOc4ccccc4)c3)c3cc[nH]c3n2)cc1)NO`, the figures for the IC50 (against Histone deacetylase 1; in assay [1]; in assay [2]) were 1720 nM, 7 nM and 40 nM, respectively.

By IC50 is commonly meant the midpoint of a concentration-inhibition curve.
